Assay results reported in patent US20080248511A1, “METHODS TO QUENCH LIGHT FROM OPTICAL REACTIONS” (priority 2007, published 2008).

Legend:
Assay type in all cases: biochemical
Renilla luciferase [1] = molecular target: T1, Renilla luciferase (Renilla reniformis, UniProt P27652); assay: Quench of Renilla luciferase luminescence by competitive inhibitors in detergent-containing quenching reagent (Example 1)
T1 sequence (P27652 1-311): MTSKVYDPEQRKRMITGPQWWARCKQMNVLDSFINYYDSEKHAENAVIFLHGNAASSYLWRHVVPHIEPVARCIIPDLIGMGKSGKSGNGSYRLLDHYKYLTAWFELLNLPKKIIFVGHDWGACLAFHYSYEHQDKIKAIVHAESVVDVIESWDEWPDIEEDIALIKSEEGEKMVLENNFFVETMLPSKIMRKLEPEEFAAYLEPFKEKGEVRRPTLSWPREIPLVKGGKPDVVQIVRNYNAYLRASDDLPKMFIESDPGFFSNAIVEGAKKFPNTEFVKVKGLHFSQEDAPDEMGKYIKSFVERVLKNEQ
Protocol: Renilla luciferase (1×10^−9 M in Renilla Luciferase Lysis Buffer (Promega))+0.1% Prionex (PentaPharma) was added to Renilla Luciferase Assay Buffer (Promega) containing 3 μM coelenterazine-h. The initial Renilla luciferase-mediated luminescence was measured for 10 seconds using a Turner 20/20 n (Turner BioSystems). A quenching reagent containing 50 mM HEPES pH 7.4, 16 mM MgSO4, 1 mM CDTA, 0.5% Tergitol NP-9, 0.015% dodecyltrimethylammonium bromide, 10 mM thiourea, 0.05% Mazu-DF-204 (PGP), and 1.5 mM ATP (Pharmacia) was added to the reactions to reduce the Renilla luciferase-mediated luciferase luminescence. […] After the addition of the inhibitors, a second Renilla luciferase-mediated luminescence reading was taken. Unless otherwise specified, materials were obtained from Sigma-Aldrich.
The quenching agents described herein are effective in the presence of detergents used for cell lysis as well as other quenching agents.

Renilla luciferase [2] = molecular target: T1, Renilla luciferase; assay: Detergent screen with Tergitol NP-9, Renilla luciferase (Example 3); conditions: 0.5% Tergitol NP-9; for Retained Renilla Luminescence (%): 0.06% quencher in reagent solution; for Selectivity Value: retained firefly / retained Renilla, 0.06% quencher
Protocol: (§1) Unless otherwise specified, materials were obtained from Sigma-Aldrich.
(§2) The firefly luciferase and Renilla luciferase enzymes were diluted as follows. Firefly luciferase was diluted to 14 ng/ml in Delbecco's Minimal Essential (DMEM) medium (Gibco/Invitrogen) containing 0.1% Prionex®. Renilla luciferase was diluted to 10 ng/ml in DMEM medium containing 0.1% Prionex®.
(§3) The luciferase reactions were initiated by adding 50 μl of the firefly luciferase or Renilla luciferase enzyme solution to 50 μl of reagent solution. The reactions were performed as described above. The retained firefly luciferase and Renilla luciferase luminescence as well as the selectivity values for each quencher were calculated (Table 3). The values listed are based on 0.06% quencher in the reagent solution.

firefly luciferase = firefly luciferase (Photinus pyralis, UniProt P08659); assay: Detergent screen with Tergitol NP-9, firefly luciferase (Example 3); conditions: 0.06% quencher in reagent solution; 0.5% Tergitol NP-9
Protocol: as §1, §2, §3

[3] = Quench Reagent + 10 μM inhibitor
[4] = Quench Reagent + 100 μM inhibitor

Sequence of firefly luciferase (P08659 whole entry): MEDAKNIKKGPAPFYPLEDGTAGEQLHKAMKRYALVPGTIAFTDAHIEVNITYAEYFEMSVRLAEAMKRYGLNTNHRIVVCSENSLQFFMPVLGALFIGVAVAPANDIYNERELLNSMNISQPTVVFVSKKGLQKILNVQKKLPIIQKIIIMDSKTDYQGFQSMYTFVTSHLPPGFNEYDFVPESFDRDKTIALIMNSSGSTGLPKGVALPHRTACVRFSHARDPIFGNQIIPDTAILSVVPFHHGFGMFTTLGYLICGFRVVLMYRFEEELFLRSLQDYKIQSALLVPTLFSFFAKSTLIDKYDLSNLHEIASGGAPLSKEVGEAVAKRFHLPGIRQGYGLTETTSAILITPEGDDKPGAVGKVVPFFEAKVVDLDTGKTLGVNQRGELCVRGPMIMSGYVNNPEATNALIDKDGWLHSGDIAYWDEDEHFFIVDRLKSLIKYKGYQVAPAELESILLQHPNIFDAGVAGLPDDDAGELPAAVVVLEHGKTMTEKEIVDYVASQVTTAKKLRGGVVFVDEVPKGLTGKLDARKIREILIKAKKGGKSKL

Compound | Reduction in Renilla luciferase luminescence after 2nd measurement (Renilla luciferase [1]; [3]) | Reduction in Renilla luciferase luminescence after 2nd measurement (Renilla luciferase [1]; [4]) | Ki (Renilla luciferase [1]; in the presence of lysing detergent and quenching reagent) [µM] | Retained Renilla Luminescence (%) (Renilla luciferase [2]) | Selectivity Value (Renilla luciferase [2]) | Retained Firefly Luminescence (%) (firefly luciferase)
O=C(Cc1ccc(O)cc1)Nc1ncc(-c2ccc(O)cc2)nc1Cc1ccccc1 [coelenteramide] | 18-fold | 21-fold | > 100 | – | – | –
CCCCCC[N+](C)(C)Cc1ccccc1.[Br-] [N-benzyl-N,N-dimethylhexan-1-aminium bromide] | – | – | – | 54 | 1.9 | 103
C[N+](C)(Cc1ccccc1)C1CCCCC1.[Br-] [N-benzyl-N,N-dimethylcyclohexanaminium bromide] | – | – | – | 76 | 1.2 | 90
methylether coelenterazine-h | 15-fold | 30-fold | – | – | – | –
